# Test results taken from US20140107166A1, “HISTONE DEACETYLASE INHIBITORS AND METHODS OF USE THEREOF” (DANA-FARBER CANCER INSTITUTE, INC., priority 2011, published 2014).
# Test system: HDACs
# Assay: HDAC deacetylase inhibition assay (trypsin-coupled fluorescent substrate)
# Format: biochemical
# Protocol: Selected compounds of the invention were tested for activity against a number of HDACs. The assays were performed substantially as described in PCT Patent Application WO/2008/091349. In brief, a target substrate is incubated with an HDAC or other protein with deacetylase activity in the presence of a test compound. In certain embodiments, the target substrate includes an acetylated lysine residue. Deacetylation of the substrate allows trypsin or another protease to cleave the substrate, thereby releasing a fluorescent probe. Fluorescence can be continuously monitored in order to determine the ability of the test compound to inhibit the deacetylation activity. The HDAC or other enzyme may be purified or used crude in the inventive assay. In certain embodiments, the assay is a cell-free assay.
structure (smiles),measurement,value
CCCCOc1ccc(CC(=O)NO)cc1 [bufexamac],inhibition of HDAC (result in words),inhibitor of HDAC
